# Data reported in US11377444B2, “Pyridopyrimidine compounds acting as mTORC 1/2 dual inhibitors” (MEDSHINE DISCOVERY INC., priority 2017, dated 2022).
# Where two headings read alike, the source gives them in different places.
# Key:
# [1] = target: T1, mTOR kinase (mTORC1 and mTORC2 kinase complex) (Homo sapiens, UniProt P42345); experiment: In vitro evaluation of mTOR kinase inhibitory activity (DiscoverX ligand-bead competition binding, qPCR readout)
# T1 construct: purchased DiscoverX; host or cells: HEK-293
# Method: Experimental Embodiment 1: In Vitro Evaluation of mTOR Kinase Inhibitory Activity This experiment was performed by DiscoverX. All materials and methods were obtained from DiscoverX.
# Kinase activity analysis.
# 1. Labeled mTOR kinase was stably expressed in HEK-293 cells.
# 2. Streptavidin magnetic beads were treated with biotinylated small molecule ligands at room temperature for 30 minutes to produce affinity resin for kinase analysis;
# 3. Ligand beads were blocked with excess biotin and washed with buffer (1% bovine serum albumin, […]) to remove unbound ligand and non-specifically bound ligand;
# 4. The assembly of kinase and ligand and affinity beads, and the binding reaction between the compound and the three were performed in buffer (20% blocking buffer, 0.17x phosphate buffer, 0.05% Tween […]);
# 5. The test compounds were dissolved in dimethyl sulfoxide;
# 6. All test compounds were dissolved in DMSO, and then directly diluted […]
# 7. The solution was placed in a 384-well polypropylene plate, wherein the volume of each well was 0.02 mL;
# 8. The plate was shaked for an hour at room temperature;
# 9. The plate was washed with buffer (1× PBS, 0.05% Tween 20);
# 10. The affinity beads were resuspended in buffer (1× PBS, 0.05% Tween […] non-biotin affinity ligand) and incubated at room temperature for 30 minutes;
# 11. The kinase concentration in the eluate was deteced by qPCR.
# HT-29 cell = experiment: Cell proliferation inhibitory activity (Cell-Titer-Glo), HT-29; type: cell-based; settings: 3 days incubation
# From the text: (§1) Experimental Embodiment 2: Evaluation of Cell Proliferation Inhibitory Activity
# (§2) Experiment objective: To detect cell proliferation inhibitory activity of the tested compounds.
# (§3) Experimental principle: The luciferase in the Cell-Titer-Glo reagent produces oxyluciferin using luciferin, oxygen and ATP as reaction substrates, and releases energy in the form of light. Since the reaction of luciferase requires ATP, the total amount of light generated by the reaction is proportional to the total amount of ATP that reflects cell viability.
# (§4) Cell lines: MCF-7 cell line […], HT-29 cell line (ATCC-HTB-38), OE21 (ECACC-96062201), NCI-N87 cell line (ATCC-CRL-5822)
# (§5) Cell culture medium: (RPMI 1640 culture medium (Invitrogen #1868546; 10% serum Invitrogen #1804958; L-glutamine 1×, Invitrogen #1830863; dual antibiotic Hyclone #J170012))
# (§6) Cell Titer-Glo® Luminescent Cell Viability Assay Kit (Promega #G7573)
# (§7) The cells were inoculated in a 384- or 96-well plate with a density of 1000 cells per well and 25 μL per well according to the instructions of the cell inoculating plate. The edge wells were not inoculated with cells, and was supplemented with […].
# (§8) (i) The mother solution of the compound was 10 mM, and diluted with DMSO to an initial concentration of 4 mM. The compound was added to the compound mother solution, 9 μL per well.
# (§9) (ii) The compound was diluted with ECHO liquid-handling workstation. Each well of the cell plate was added with 125 nL compound. Each well of the cell wells in 2nd column and 23rd column was added with 125 nL DMSO, and each of the PBS wells in 1st column and 24th column was added with 125 nL DMSO.
# (§10) (iii) Each well of the cell plate was supplemented with 25 μL culture medium, the final volume in each well of the cell plate was 50 μL, […] 3 times dilution, 10 concentrations, each concentration was duplicated in left and right wells, the final DMSO concentration was 0.25%.
# (§11) 2.3. After addition of the compound, centrifugation was performed at 1000 rpm for 1 min, and the cell plate was placed in a 37° C., 5% CO2 incubator for 3 days.
# (§12) The cell plate was taken out from the incubator and equilibrated at room temperature for 30 minutes. 25 μL Cell-Titer-Glo reagent was added to each well, shaken for one minute to mix thoroughly, centrifuged at 1000 rpm for 1 minute. After 10 minutes, the plate was read on PerkinElmer Envision with a […] reading time was set at 0.2 second.
# MCF-7 cell = experiment: Cell proliferation inhibitory activity (Cell-Titer-Glo), MCF-7; type: cell-based; settings: Homo sapiens, MCF7, 72 h; 3 days incubation
# From the text: as §1, §2, §3, §4, §5, §6, §7, §8, §9, §10, §11, §12
# N87 cell = experiment: Cell proliferation inhibitory activity (Cell-Titer-Glo), N87; type: cell-based; settings: 72 h; 3 days incubation
# From the text: as §1, §2, §3, §4, §5, §6, §7, §8, §9, §10, §11, §12
# [2] = Pharmacokinetic evaluation in plasma after IV and PO administration; type: in vivo; settings: female Balb/c mice; for AUC(0-inf) / AUC(0-t) / C0 / clearance / half-life / MRT inf / MRT last / Vd / Cmax / Tmax / bioavailability: mouse; for MRT inf: read-out: MRT0-inf; for MRT last: read-out: MRT0-last; for Vd: read-out: Vdss
# Method: Experimental Embodiment 3: Pharmacokinetic Evaluation
# The test compound was mixed with […] (Cremophor EL), vortexed and sonicated to prepare a 1 mg/mL near-clear solution, which was filtered with a microporous filter membrane for future use. Female Balb/c mice of 18 to 20 grams were selected and the solution of the test compound was administered intravenously at a dose of 1 or 2 mg/kg. The test compound was mixed with an aqueous solution of 1% Tween 80, 9% polyethylene glycol 400, and 90% water, vortexed and sonicated to prepare 1 mg/mL near-clear solution, which was filtered with a microporous filter membrane for future use.
# Female Balb/c mice of 18 to 20 grams were selected, and the solution of the test compound was orally administered at a dose of 2 or 10 mg/kg. The whole blood was collected at a certain time, and prepared into plasma. The drug concentration was analyzed by LC-MS/MS, and the pharmacokinetic parameters were calculated using Phoenix WinNonlin software (Pharsight Corporation, USA).
smiles,measurement,setting,value
"CNC(=O)c1cccc(-c2ccc3c(N4CCOCC4C)nc(N4CCOC5(CCOC5)C4)nc3n2)c1 (single isomer, unassigned) [Embodiment 32-1]",Kd,[1],0.79 nM
same,IC50,"HT-29 cell; Homo sapiens, HT-29, 72 h",744 nM
"CNC(=O)c1cccc(-c2ccc3c(N4CCOCC4C)nc(N4CCOC5(CCOC5)C4)nc3n2)c1 (single isomer, unassigned) [Embodiment 32-2]",Kd,[1],1.5 nM
same,IC50,HT-29 cell,1410 nM
"CNC(=O)c1cccc(-c2ccc3c(N4CCOCC4C)nc(N4CCOC5(CC(O)C5)C4)nc3n2)c1 (single isomer, unassigned) [Embodiment 33-1]",Kd,[1],0.78 nM
same,IC50,"HT-29 cell; Homo sapiens, HT-29, 72 h",1970 nM
"CNC(=O)c1cccc(-c2ccc3c(N4CCOCC4C)nc(N4CCOC5(CC(O)C5)C4)nc3n2)c1 (single isomer, unassigned) [Embodiment 33-2]",Kd,[1],0.38 nM
same,IC50,HT-29 cell,1250 nM
"CNC(=O)c1cccc(-c2ccc3c(N4CCOCC4C)nc(N4CCOC5(CC(OC)C5)C4)nc3n2)c1 (single isomer, unassigned) [Embodiment 34-1]",Kd,[1],1 nM
same,IC50,"HT-29 cell; Homo sapiens, HT-29, 72 h",1050 nM
"CNC(=O)c1cccc(-c2ccc3c(N4CCOCC4C)nc(N4CCOC5(CC(OC)C5)C4)nc3n2)c1 (single isomer, unassigned) [Embodiment 34-2]",Kd,[1],0.73 nM
same,IC50,HT-29 cell,833 nM
"CNC(=O)c1cccc(-c2ccc3c(N4CCOCC4C)nc(N4CC5(CCOC5)OCC4C)nc3n2)c1 (single isomer, unassigned) [Embodiment 48-2]",Kd,[1],0.7 nM
same,IC50,MCF-7 cell,176 nM
"CC1COCCN1c1nc(N2CCOC3(CCOC3)C2)nc2nc(-c3cccc(C(N)=O)c3)ccc12 (single isomer, unassigned) [Embodiment 50-2]",Kd,[1],0.7 nM
same,IC50,MCF-7 cell,636 nM
CNC(=O)c1cccc(-c2ccc3c(N4C5CCC4COC5)nc(N4CCOC5(CC5)C4)nc3n2)c1 [Embodiment 9],Kd,[1],0.34 nM
same,IC50,MCF-7 cell,262 nM
CNC(=O)c1cccc(-c2ccc3c(N4CCOCC4C)nc(N4CCC5(CC4)OCCO5)nc3n2)c1 (stereo not drawn) [Embodiment 12],Kd,[1],0.75 nM
same,IC50,MCF-7 cell,251 nM
CNC(=O)c1cccc(-c2ccc3c(N4CCOC[C@@H]4C)nc(N4CCOC5(CCOCC5)C4)nc3n2)c1 [Embodiment 13],Kd,[1],0.64 nM
same,IC50,MCF-7 cell,255 nM
C[C@H]1COCCN1c1nc(N2CCOC3(CC3)C2)nc2nc(-c3cccc(C(=O)NC4CC4)c3)ccc12 [Embodiment 21],Kd,[1],0.47 nM
same,IC50,MCF-7 cell,190 nM
CNC(=O)c1cccc(-c2ccc3c(N4CCOC[C@@H]4C)nc(N4CCOC5(CCCC5)C4)nc3n2)c1 [Embodiment 24],Kd,[1],0.41 nM
same,IC50,MCF-7 cell,206 nM
CNC(=O)c1cccc(-c2ccc3c(N4CC5CCC(C4)O5)nc(N4CCOC5(CC5)C4)nc3n2)c1 [Embodiment 26],Kd,[1],1 nM
same,IC50,MCF-7 cell,431 nM
C[C@H]1COC2(CCC2)CN1c1nc(N2CCOC[C@@H]2C)c2ccc(-c3cccc(C(N)=O)c3)nc2n1 [Embodiment 35],Kd,[1],0.4 nM
same,IC50,MCF-7 cell,105 nM
same,IC50,N87 cell,44 nM
same,AUCExtra,[2]; IV 1 mg/kg,0.246%
same,AUMCExtra,[2]; IV 1 mg/kg,1.59%
same,Tlast,[2]; IV 1 mg/kg,12.0 h
same,AUCExtra,[2]; PO 2 mg/kg,1.84%
same,AUMCExtra,[2]; PO 2 mg/kg,8.59%
same,Tlast,[2]; PO 2 mg/kg,8.00 h
same,AUC(0-inf),[2]; IV 1 mg/kg,7.4 µM·h
same,AUC(0-t),[2]; IV 1 mg/kg,7.38 µM·h
same,C0,[2]; IV 1 mg/kg,2.49 µM
same,clearance,[2]; IV 1 mg/kg,5.07 mL/min/kg
same,half-life,[2]; IV 1 mg/kg,82.8 min
same,MRT inf,[2]; IV 1 mg/kg,2.16 h
same,MRT last,[2]; IV 1 mg/kg,2.13 h
same,Vd,[2]; IV 1 mg/kg,0.657 L/kg
same,AUC(0-inf),[2]; PO 2 mg/kg,8.75 µM·h
same,AUC(0-t),[2]; PO 2 mg/kg,8.59 µM·h
same,Cmax,[2]; PO 2 mg/kg,3.49 µM
same,Tmax,[2]; PO 2 mg/kg,15 min
same,bioavailability,[2]; PO 2 mg/kg,56.1%
same,half-life,[2]; PO 2 mg/kg,79.8 min
same,MRT inf,[2]; PO 2 mg/kg,2.13 h
same,MRT last,[2]; PO 2 mg/kg,1.98 h
C[C@H]1COCCN1c1nc(N2CCOCC3(CCC3)C2)nc2nc(-c3cccc(C(N)=O)c3)ccc12 [Embodiment 36],IC50,MCF-7 cell,360 nM
CNC(=O)c1cccc(-c2ccc3c(N4CCOC[C@@H]4C)nc(N4CCOCC5(CCC5)C4)nc3n2)c1 [Embodiment 37],IC50,MCF-7 cell,252 nM
C[C@H]1COCCN1c1nc(N2CCOCC3(CC3)C2)nc2nc(-c3cccc(C(N)=O)c3)ccc12 [Embodiment 38],IC50,MCF-7 cell,449 nM
CNC(=O)c1cccc(-c2ccc3c(N4CCOC[C@@H]4C)nc(N4CCOCC5(CC5)C4)nc3n2)c1 [Embodiment 39],IC50,MCF-7 cell,268 nM
C[C@H]1COCCN1c1nc(N2CCOC3(COC3)C2)nc2nc(-c3cccc(C(N)=O)c3)ccc12 [Embodiment 52],Kd,[1],0.8 nM
same,IC50,MCF-7 cell,586 nM
COc1ccc(-c2ccc3c(N4CCOC[C@@H]4C)nc(N4CCOC5(CC5)C4)nc3n2)cc1CO [Embodiment 54],IC50,N87 cell,119 nM
CNC(=O)c1cc(-c2ccc3c(N4CCOC[C@@H]4C)nc(N4CCOC5(CC5)C4)nc3n2)ccc1OC [Embodiment 55],IC50,N87 cell,120 nM
same,AUCExtra,[2]; IV 1 mg/kg,0.0522%
same,AUMCExtra,[2]; IV 1 mg/kg,0.540%
same,Tlast,[2]; IV 1 mg/kg,12 h
same,AUCExtra,[2]; PO 2 mg/kg,0.0673%
same,AUMCExtra,[2]; PO 2 mg/kg,0.493%
same,Tlast,[2]; PO 2 mg/kg,12.0 h
same,AUC(0-inf),[2]; IV 1 mg/kg,9.47 µM·h
same,AUC(0-t),[2]; IV 1 mg/kg,9.46 µM·h
same,C0,[2]; IV 1 mg/kg,9.7 µM
same,clearance,[2]; IV 1 mg/kg,3.49 mL/min/kg
same,half-life,[2]; IV 1 mg/kg,60.6 min
same,MRT inf,[2]; IV 1 mg/kg,1.3 h
same,MRT last,[2]; IV 1 mg/kg,1.29 h
same,Vd,[2]; IV 1 mg/kg,0.272 L/kg
same,AUC(0-inf),[2]; PO 2 mg/kg,16.3 µM·h
same,AUC(0-t),[2]; PO 2 mg/kg,16.3 µM·h
same,Cmax,[2]; PO 2 mg/kg,7.73 µM
same,Tmax,[2]; PO 2 mg/kg,30 min
same,bioavailability,[2]; PO 2 mg/kg,86.1%
same,half-life,[2]; PO 2 mg/kg,69 min
same,MRT inf,[2]; PO 2 mg/kg,1.86 h
same,MRT last,[2]; PO 2 mg/kg,1.86 h
COc1ccc(-c2ccc3c(N4CCOC[C@@H]4C)nc(N4CCOC5(CC5)C4)nc3n2)cc1C(N)=O [Embodiment 56],IC50,N87 cell,167 nM
